Test results: US7678386B2, “Liposomes coated with selected antibodies that bind to aminophospholipids” (Board of Regents the University of Texas, priority 2002, dated 2010)

What was measured:
[1] = system: vascular endothelium of MDA-MB-231 tumors; assay: Double staining study, orthotopic MDA-MB-231 tumors; assay type: in vivo, mouse; conditions: biotinylated reagent i.v., one hour
Experimental: In further studies, mice bearing MDA-MB-231 tumors (0.3-0.7 cm^3 in volume) were injected intravenously with 50 μg of biotinylated 9D2, control IgM or annexin V (six mice per group). Biotinylated reagents were first incubated with streptavidin-Cy3 conjugate, washed in PBS. then incubated with MECA 32 antibody followed by FITC-tagged anti-rat IgG secondary antibody. Single images, taken with appropriate filters for Cy3 (red) and FITC (green) fluorescence respectively, were captured by digital camera and transferred to a computer. […] The same method was used to analyze tumors from mice injected with control rat IgM or saline. The percentage of vessels with localized 9D2 or annexin V was calculated as follows: mean number of yellow vessels per field divided by mean number of green (total) vessels multiplied by 100.
Double staining studies were also performed in which mice bearing orthotopic MDA-MB-231 breast tumors were injected intravenously with biotinylated 9D2 antibody, biotinylated control IgM or biotinylated annexin V. One hour later, the mice were exsanguinated, and their tumors were removed and frozen sections were cut. The tumor sections were then stained with Cy3-conjugated streptavidin to detect the biotinylated proteins and with FITC-conjugated MECA32 to detect vascular endothelium. […]

[2] = system: vascular endothelium of tumors and normal organs; assay: Detection of anionic phospholipids in tumor bearing mice in vivo (9D2, annexin V); set-up: species or system mouse
Experimental: For localization studies, 2×10^7 L540 human Hodgkin's lymphoma cells or 1×10^7 cells of other tumor types were injected subcutaneously into the right flank of SCID mice (Charles River. Wilmington, Mass.). Tumors were allowed to reach a volume of 0.4-0.7 cm^3. A minimum of three animals per group was used. Studies were replicated at least three times.
Female nu/nu or SCID mice were purchased from Charles River. MDA-MB-231 human mammary carcinoma cells were implanted into the mammary fat pad according to a published protocol (Price. 1996). Briefly, mice were anesthetized and a 5-mm incision was made in the skin over the lateral thorax. The mammary pad was exposed to ensure the correct site for injection of 1×10^7 MDA-MB-231 cells re-suspended in 0.1 ml of saline.
To detect externally-positioned phospholipids, methods were performed essentially as previously described (Example V; Ran et al., 1998). Tumor-bearing SCID mice were injected intravenously with either 50 μg of 9D2 or biotinylated 9D2 antibody or 100 μg of biotinylated annexin V. Sixty min later mice were sacrificed and their blood circulation was exsanguinated and perfused with heparinized saline as previously described (Burrows et al., 1992). All major organs and tumor were harvested and snap-frozen for preparation of cryosections.
Sections were blocked with PBS containing 10% serum. To prevent loss of phospholipids during slide processing, detergents and organic solvents were omitted from blocking and washing buffers. Rat IgM was detected using goat anti rat IgM (μspecific)-HRP conjugate followed by development with carbazole or DAB (Fries et al., 1993). Biotinylated reagents were detected by streptavidin conjugated to HRP.
Tumor sections derived from mice injected with saline or rat IgM of irrelevant specificity served as negative controls. Additional controls consisted of incubating the slides in 1% Triton solution or in acetone for 10 min. These treatments extract phospholipids. No signal was detected under these conditions. The number of positive vessels per high power field was determined at magnification of ×100. At least 10 fields per section were examined and the average percentage of positive vessels was calculated. Staining of the sections by this method for the presence of 9D2 or annexin V detects cells having externalized anionic phospholipids that were accessible for binding by the reagents in vivo.
Structures with localized 9D2 antibody or annexin V were identified as blood vessels by morphological appearance on DAB-stained sections and by co-incident staining with the pan-endothelial cell marker, MECA 32 on serial sections of frozen tissues. Quantification on DAB-stained sections was done by counting vessels stained by MECA 32, 9D2 or annexin V in serial sections of a tumor. Six slides of each tumor type derived from 6 mice injected with 9D2 antibody, control rat IgM or annexin V were examined. At least 10 random fields per section (0.317 mm^2/field) were scored in blinded fashion by two independent observers. The mean numbers and standard errors of vessels stained by 9D2, annexin V or MECA 32 were calculated. The mean number of 9D2 or annexin V-positive vessels determined in each tumor type group was compared to the mean number of MECA 32-positive vessels in the same tumor group. The percentage of 9D2 or annexin V-positive vessels was calculated.

[3] = system: blood vessels of L540 tumors; assay: Annexin V inhibition of coaguligand-induced thrombosis in vivo; set-up: species or system mouse
Experimental: The ability of Annexin V to inhibit coaguligand-induced thrombosis in vivo was examined in L540 Hodgkin-bearing SCID mice. Tumors were grown in mice and two mice per group (tumor size 0.5 cm in diameter) were injected intravenously via the tail vein with one of the following reagents: a) saline; b) 100 μg of Annexin V; c) 40 μg of anti-VCAM-1•tTF; d) 100 μg of Annexin V followed 2 hours later by 40 μg of anti-VCAM-1•tTF.
Four hours after the last injection mice were anesthetized and perfused with heparinized saline. Tumors were removed, fixed with 4% formalin, paraffin-embedded and stained with hematoxylene-eosin. The number of thrombosed and non-thrombosed blood vessels was counted and the percentage of thrombosis was calculated.

[4] = Competition of 9D2 and annexin V for binding to immobilized PS; conditions: competitor in 10-fold molar excess
Experimental: Biotinylated 9D2 antibody and annexin V were prepared by incubating purified proteins with a 10-fold molar excess of N-hydroxysuccinimide biotin (Sigma, Mo.) for 1 h at room temperature. Free biotin was removed by dialysis against PBS. […] For competition studies, […] biotinylated proteins were premixed with a 10-fold molar excess of unmodified proteins. The mixtures were then added to PS-coated plates. Bound reagents were detected by streptavidin-HRP conjugate diluted 1:1000. The binding to PS of each reagent in the absence of a competitor was taken as the 100% value.

Substance: Annexin V: high affinity PS binding ligand; natural ligand of anionic phospholipids and PE
- MECA 32 positive vessels that bound the reagent [1]: About 40%
- PS-positive vessels of MECA 32-stained vessels (mean ±SE) ([2]; B16 tumor): 21.3 ± 6.6%
- PS-positive vessels of MECA 32-stained vessels (mean ±SE) ([2]; L540cy tumor): 16.7 ± 3.9%
- PS-positive vessels of MECA 32-stained vessels (mean ±SE) ([2]; MDA-MB-231 tumor): 45.3 ± 5.6%
- PS-positive vessels of MECA 32-stained vessels (mean ±SE) ([2]; MDA-MB-231 tumor, listed as annexin V): 40%
- PS-positive vessels of MECA 32-stained vessels (mean ±SE) ([2]; NCI-H358 tumor): 15%
- vascular localization in normal organs ([2]; nine of ten normal organs examined (kidney tubules non-specific)): No vascular localization
- coaguligand-induced intravascular thrombosis and changes in tumor cell morphology ([3]; 100 μg Annexin V 2 hours before 40 μg coaguligand): completely abolished
- tumor morphology ([3]; 100 μg Annexin V alone): did not alter tumor morphology
- Binding (% Control) of biotinylated 9D2 to PS [4]: 93%
- Binding (% Control) of biotinylated annexin V to PS [4]: 8%
